Results on ten compounds are retold here after patent US9499519B2, “Fused pyrimidine compounds and use thereof” (Medivation Technologies, Inc., priority 2012, dated 2016).

Experiment [1] has as its system Akt phosphorylation induced by IGF-1R. The experiment can be described thus: Western blot analysis of Akt phosphorylation induced by IGF-1 in HT-29 cells. It counts as cell-based, Human. To be noted: for Levels of phosphorylated AKT in treated cells (pAKT/actin): HT-29 cells, IGF-1; for p-AKT relative to levels with 0.1 nM compound: Table B2 lower part; for Normalized phosphorylated AKT (relative to actin) levels relative to 0.1 nM compound treatment: Table B2 upper part. As to the method:
Inhibition of Akt phosphorylation induced by IGF-1R was studied by western blot analysis. Human colon carcinoma HT-29 cells were seeded at a density of 8×10^4 cells/well in a 24-well plate and grown in DME/F12 media containing 10% FBS for 24 h. The cells were then depleted of serum by incubation in DME/F12 media lacking FBS for 24 h. […] […] Lysed cells were centrifuged at 13,000 rpm for 15 min and the protein concentration soluble fraction (supernatant) of each sample was determined using a BCA protein assay (Pierce).
In general terms: A western blot detects proteins with antibodies after separation by electrophoresis.

In the next experiment the target is T1, IR (Homo sapiens, UniProt P06213).
T1 construct: purchased Millipore 14-803
T1 sequence (P06213 28-1382): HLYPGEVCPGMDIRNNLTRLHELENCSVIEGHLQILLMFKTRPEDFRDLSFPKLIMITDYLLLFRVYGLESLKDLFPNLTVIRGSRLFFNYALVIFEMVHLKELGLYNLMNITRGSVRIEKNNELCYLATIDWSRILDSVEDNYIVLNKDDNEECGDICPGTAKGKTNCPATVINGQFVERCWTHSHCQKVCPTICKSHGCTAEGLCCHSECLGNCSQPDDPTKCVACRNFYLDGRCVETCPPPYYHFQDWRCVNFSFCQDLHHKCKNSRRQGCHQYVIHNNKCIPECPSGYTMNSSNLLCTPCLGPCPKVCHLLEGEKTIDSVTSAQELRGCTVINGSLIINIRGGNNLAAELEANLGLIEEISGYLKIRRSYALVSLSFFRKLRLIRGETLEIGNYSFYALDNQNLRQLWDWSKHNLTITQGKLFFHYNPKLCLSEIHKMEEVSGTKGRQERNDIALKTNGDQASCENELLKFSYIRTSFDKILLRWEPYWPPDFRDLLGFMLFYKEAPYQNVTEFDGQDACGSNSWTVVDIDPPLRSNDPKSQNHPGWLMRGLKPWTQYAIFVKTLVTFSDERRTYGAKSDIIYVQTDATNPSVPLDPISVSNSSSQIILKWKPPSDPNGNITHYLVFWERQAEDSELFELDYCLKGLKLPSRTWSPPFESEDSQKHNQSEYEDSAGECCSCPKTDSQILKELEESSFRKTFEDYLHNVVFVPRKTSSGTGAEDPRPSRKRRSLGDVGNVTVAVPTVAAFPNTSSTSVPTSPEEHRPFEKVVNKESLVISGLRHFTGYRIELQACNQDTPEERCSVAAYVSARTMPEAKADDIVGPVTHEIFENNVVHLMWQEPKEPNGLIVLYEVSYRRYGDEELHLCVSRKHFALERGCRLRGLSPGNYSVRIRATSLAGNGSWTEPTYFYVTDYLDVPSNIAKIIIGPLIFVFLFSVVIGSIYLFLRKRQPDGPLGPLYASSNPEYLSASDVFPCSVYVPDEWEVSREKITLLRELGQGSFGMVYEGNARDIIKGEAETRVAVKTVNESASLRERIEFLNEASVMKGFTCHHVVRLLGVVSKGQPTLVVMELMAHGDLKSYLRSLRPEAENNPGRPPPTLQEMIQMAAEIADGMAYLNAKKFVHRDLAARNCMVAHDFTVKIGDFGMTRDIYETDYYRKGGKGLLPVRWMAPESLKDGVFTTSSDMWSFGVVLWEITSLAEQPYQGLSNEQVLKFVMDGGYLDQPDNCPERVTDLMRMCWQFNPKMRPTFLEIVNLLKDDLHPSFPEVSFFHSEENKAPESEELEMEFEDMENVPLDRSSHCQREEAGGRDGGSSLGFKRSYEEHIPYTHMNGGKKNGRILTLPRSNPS
The experiment can be described thus: In vitro IR enzymatic assay (ADP-Glo kinase assay). The experiment is classed as biochemical. Conditions: activated IR, 30 nM. As to the method: (§1) IC50 values of the compounds of the invention against IGF-1R and IR were measured in vitro using an ADP-Glo kinase assay Kit (Promega). […] Kinase reactions in both assays were conducted at 30° C. for 20 min with increasing concentrations of compounds of the invention.
Additional compounds of the invention were screened against activated IR.

The next experiment addresses T2, IGF-1R (Homo sapiens, UniProt P08069).
T2 construct: purchased Millipore 14-802
The experiment can be described thus: In vitro IGF-1R enzymatic assay (ADP-Glo kinase assay). Conditions: activated IGF-1R, 30 nM, average; for inhibition at 0.03 µM: read-out: % Inh @ 30 nM Avg. It counts as biochemical. As to the method:
as §1
Additional compounds of the invention were screened against activated IGF-1R.
(In general: In ADP-Glo the light output rises with the ADP produced.)

T2 sequence (P08069 31-1367): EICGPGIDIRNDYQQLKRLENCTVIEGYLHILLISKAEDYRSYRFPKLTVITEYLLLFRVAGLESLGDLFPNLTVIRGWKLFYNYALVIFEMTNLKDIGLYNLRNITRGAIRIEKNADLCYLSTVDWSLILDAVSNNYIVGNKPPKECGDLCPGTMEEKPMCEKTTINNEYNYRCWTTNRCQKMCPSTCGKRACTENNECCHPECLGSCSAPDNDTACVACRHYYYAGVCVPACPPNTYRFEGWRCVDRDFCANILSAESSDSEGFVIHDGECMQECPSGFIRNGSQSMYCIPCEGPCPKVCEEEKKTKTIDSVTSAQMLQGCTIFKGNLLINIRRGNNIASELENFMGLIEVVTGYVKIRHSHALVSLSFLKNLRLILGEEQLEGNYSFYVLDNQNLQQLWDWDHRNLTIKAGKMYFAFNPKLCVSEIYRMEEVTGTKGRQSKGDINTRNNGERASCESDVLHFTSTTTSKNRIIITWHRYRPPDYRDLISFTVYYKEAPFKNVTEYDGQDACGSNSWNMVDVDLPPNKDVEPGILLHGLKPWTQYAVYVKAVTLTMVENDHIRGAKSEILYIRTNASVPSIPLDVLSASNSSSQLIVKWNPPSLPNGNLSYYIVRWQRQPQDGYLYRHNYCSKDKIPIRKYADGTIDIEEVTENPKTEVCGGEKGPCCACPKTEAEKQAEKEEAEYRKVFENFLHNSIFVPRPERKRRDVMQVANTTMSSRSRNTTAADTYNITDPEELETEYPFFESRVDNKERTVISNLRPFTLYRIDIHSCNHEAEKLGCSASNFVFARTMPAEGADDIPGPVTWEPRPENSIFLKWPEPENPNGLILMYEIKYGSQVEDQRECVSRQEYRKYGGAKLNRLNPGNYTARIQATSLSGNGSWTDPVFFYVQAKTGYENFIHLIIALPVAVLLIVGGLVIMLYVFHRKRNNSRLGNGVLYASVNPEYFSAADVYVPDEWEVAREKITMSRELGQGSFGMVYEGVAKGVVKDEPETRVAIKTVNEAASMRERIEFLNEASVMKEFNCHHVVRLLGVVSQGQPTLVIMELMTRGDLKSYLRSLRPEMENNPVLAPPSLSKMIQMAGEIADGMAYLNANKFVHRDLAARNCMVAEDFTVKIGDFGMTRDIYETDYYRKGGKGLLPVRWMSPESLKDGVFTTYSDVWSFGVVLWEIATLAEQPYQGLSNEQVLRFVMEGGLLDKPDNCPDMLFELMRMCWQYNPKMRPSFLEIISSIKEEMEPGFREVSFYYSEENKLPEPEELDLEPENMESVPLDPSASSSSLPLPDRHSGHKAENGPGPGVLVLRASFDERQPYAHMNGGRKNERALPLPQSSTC

`O=C(Nc1ccc(F)nc1)C1CCCN1c1nc2c(c(Nc3cc(C4CCCC4)[nH]n3)n1)CCCC2` (single isomer, unassigned) [Compound 15a, 1-(4-(5-cyclopentyl-1H-pyrazol-3-ylamino)-5,6,7,8-tetrahydroquinazolin-2-yl)-N-(6-fluoropyridin-3-yl)pyrrolidine-2-carboxamide]: the “Levels of phosphorylated AKT in treated cells (pAKT/actin)” value (“Levels … (pAKT/actin)” for short) in experiment [1] (0.1 nM compound) was found to be 0.70; in experiment [1] (1 nM compound), 0.89; in experiment [1] (10 nM compound), 0.92; in experiment [1] (100 nM compound) it was 0.59. Besides, the “p-AKT relative to levels with 0.1 nM compound” value (“p-AKT relative to levels” below) in experiment [1] (0.1 nM) is 1.0; in experiment [1] (1 nM), 1.3; in experiment [1] (10 nM), 1.3; in experiment [1] (100 nM) it was 0.8. Moreover, the “Normalized phosphorylated AKT (relative to actin) levels relative to 0.1 nM compound treatment” value in experiment [1] (0.1 nM) stood at 1.0; in experiment [1] (1 nM), 1.3; in experiment [1] (10 nM) it was 1.3; in experiment [1] (100 nM), 0.8. The “% Inh @ 30 nM (N1)” value at IR (N1, 0.03 µM) is −2%. Moreover, the “% Inh @ 30 nM (N2)” value on IR (N2, 0.03 µM) stood at 4%. Further, the “% Inh @ 30 nM Avg” value on IR (average) was 1%.

With `O=C(Nc1ccc(F)nc1)C1CC(O)CN1c1nc2c(c(Nc3cc(C4CC4)[nH]n3)n1)CCC2` (racemic) [Compound 10b, 1-(4-(5-cyclopropyl-1H-pyrazol-3-ylamino)-6,7-dihydro-5H-cyclopenta[d]pyrimidin-2-yl)-N-(6-fluoropyridin-3-yl)-4-hydroxypyrrolidine-2-carboxamide], the “Levels … (pAKT/actin)” value in experiment [1] (0.1 nM compound) turned out to be 2.21; in experiment [1] (1 nM compound) it was 2.75; in experiment [1] (10 nM compound), 1.71; in experiment [1] (100 nM compound), 1.66. The “p-AKT relative to levels” value was 1.0 in experiment [1] (0.1 nM), 1.2 in experiment [1] (1 nM), 0.8 in experiment [1] (10 nM) and 0.8 in experiment [1] (100 nM). Also, the “Normalized phosphorylated AKT (relative to actin) levels relative to 0.1 nM compound treatment” value in experiment [1] (0.1 nM) was determined as 1.0; in experiment [1] (1 nM), 1.2; in experiment [1] (10 nM), 0.8; in experiment [1] (100 nM), 0.8. The “% Inh @ 30 nM Avg” value at IGF-1R is −11%.

In the case of `COC1CC(C(=O)Nc2ccc(F)nc2)N(c2nc3c(c(Nc4cc(C5CC5)[nH]n4)n2)CCC3)C1` (single isomer, unassigned) [Compound 21b, 1-(4-(5-cyclopropyl-1H-pyrazol-3-ylamino)-6,7-dihydro-5H-cyclopenta[d]pyrimidin-2-yl)-N-(6-fluoropyridin-3-yl)-4-methoxypyrrolidine-2-carboxamide], the inhibition at 0.03 µM at IGF-1R stood at 41%.

Turning to `O=C(Nc1ccc(F)nc1)C1CC(O)CN1c1nc2c(c(Nc3cc(C4CC4)[nH]n3)n1)CCC2` (racemic) [Compound 10c, 1-(4-(5-cyclopropyl-1H-pyrazol-3-ylamino)-6,7-dihydro-5H-cyclopenta[d]pyrimidin-2-yl)-N-(6-fluoropyridin-3-yl)-4-hydroxypyrrolidine-2-carboxamide], the “% Inh @ 30 nM Avg” value at IGF-1R is listed as 15%.

With `O=C(Nc1cccnc1)C1CCCN1c1nc2c(c(Nc3cc(C4CC4)[nH]n3)n1)CCC2` (single isomer, unassigned) [Compound 3b, 1-(4-(5-cyclopropyl-1H-pyrazol-3-ylamino)-6,7-dihydro-5H-cyclopenta[d]pyrimidin-2-yl)-N-(pyridin-3-yl)pyrrolidine-2-carboxamide], the “Levels … (pAKT/actin)” value in experiment [1] (0.1 nM compound) is listed as 2.25; in experiment [1] (1 nM compound), 1.70; in experiment [1] (10 nM compound), 0.57; in experiment [1] (100 nM compound) it was 0.02. Further, the “p-AKT relative to levels” value in experiment [1] (0.1 nM) is listed as 1.0; in experiment [1] (1 nM), 0.8; in experiment [1] (10 nM), 0.3; in experiment [1] (100 nM) it was 0.0. Further, the “Normalized phosphorylated AKT (relative to actin) levels relative to 0.1 nM compound treatment” value in experiment [1] (0.1 nM) worked out at 1.0; in experiment [1] (1 nM), 0.8; in experiment [1] (10 nM), 0.3; in experiment [1] (100 nM), 0.0.

`O=C(Nc1ccc(F)nc1)C1CCCCN1c1nc2c(c(Nc3cc(C4CC4)[nH]n3)n1)CCC2` (single isomer, unassigned) [Compound 9a, 1-(4-(3-cyclopropyl-1H-pyrazol-5-ylamino)-6,7-dihydro-5H-cyclopenta[d]pyrimidin-2-yl)-N-(6-fluoropyridin-3-yl)piperidine-2-carboxamide]: the “Levels … (pAKT/actin)” value came out at 1.24 in experiment [1] (0.1 nM compound), 1.26 in experiment [1] (1 nM compound), 0.53 in experiment [1] (10 nM compound) and 0.02 in experiment [1] (100 nM compound). Moreover, the “p-AKT relative to levels” value in experiment [1] (0.1 nM) was found to be 1.0; in experiment [1] (1 nM), 1.0; in experiment [1] (10 nM) it was 0.4; in experiment [1] (100 nM), 0.0. In addition, the “Normalized phosphorylated AKT (relative to actin) levels relative to 0.1 nM compound treatment” value turned out to be 1.0 in experiment [1] (0.1 nM), 1.0 in experiment [1] (1 nM), 0.4 in experiment [1] (10 nM) and 0.0 in experiment [1] (100 nM).

`O=C(Nc1ccc(F)nc1)C1CCCN1c1nc2c(c(Nc3cc(C4CCCC4)[nH]n3)n1)CCC2` (racemic) [Compound 4, 1-(4-(3-cyclopentyl-1H-pyrazol-5-ylamino)-6,7-dihydro-5H-cyclopenta[d]pyrimidin-2-yl)-N-(6-fluoropyridin-3-yl)pyrrolidine-2-carboxamide]: the “Levels … (pAKT/actin)” value worked out at 1.92 in experiment [1] (0.1 nM compound), 1.59 in experiment [1] (1 nM compound), 1.01 in experiment [1] (10 nM compound) and 0.06 in experiment [1] (100 nM compound). Further, the “p-AKT relative to levels” value came to 1.0 in experiment [1] (0.1 nM), 0.8 in experiment [1] (1 nM), 0.5 in experiment [1] (10 nM) and 0.0 in experiment [1] (100 nM). Moreover, the “Normalized phosphorylated AKT (relative to actin) levels relative to 0.1 nM compound treatment” value stood at 1.0 in experiment [1] (0.1 nM), 0.8 in experiment [1] (1 nM), 0.5 in experiment [1] (10 nM) and 0.0 in experiment [1] (100 nM).

Consider `O=C(Nc1ccc(F)nc1)C1CCCCN1c1nc2c(c(Nc3cc(C4CC4)[nH]n3)n1)CCC2` (single isomer, unassigned) [Compound 9b, 1-(4-(3-cyclopropyl-1H-pyrazol-5-ylamino)-6,7-dihydro-5H-cyclopenta[d]pyrimidin-2-yl)-N-(6-fluoropyridin-3-yl)piperidine-2-carboxamide], for which the “Levels … (pAKT/actin)” value is listed as 1.46 in experiment [1] (0.1 nM compound), 1.55 in experiment [1] (1 nM compound), 1.18 in experiment [1] (10 nM compound) and 0.78 in experiment [1] (100 nM compound). Also, the “p-AKT relative to levels” value is 1.0 in experiment [1] (0.1 nM), 1.1 in experiment [1] (1 nM), 0.8 in experiment [1] (10 nM) and 0.5 in experiment [1] (100 nM). The “Normalized phosphorylated AKT (relative to actin) levels relative to 0.1 nM compound treatment” value in experiment [1] (0.1 nM) amounted to 1.0; in experiment [1] (1 nM) it was 1.1; in experiment [1] (10 nM), 0.8; in experiment [1] (100 nM), 0.5.

As for `CC1(O)CC(c2nc(-c3ccc4ccc(-c5ccccc5)nc4c3)c3c(N)nccn23)C1` (centres unmarked) [OSI-906, 3-[8-Amino-1-(2-phenyl-7-quinolyl)imidazo[1,5-a]pyrazin-3-yl]-1-methyl-cyclobutanol, reference compound], the “Levels … (pAKT/actin)” value in experiment [1] (0.1 nM compound) is 1.06; in experiment [1] (1 nM compound) it was 0.85; in experiment [1] (10 nM compound), 1.58; in experiment [1] (100 nM compound), 0.40.

As to `COC1CC(C(=O)Nc2ccc(F)nc2)N(c2nc3c(c(Nc4cc(C5CC5)[nH]n4)n2)CCC3)C1` (single isomer, unassigned) [Compound 21a, 1-(4-(5-cyclopropyl-1H-pyrazol-3-ylamino)-6,7-dihydro-5H-cyclopenta[d]pyrimidin-2-yl)-N-(6-fluoropyridin-3-yl)-4-methoxypyrrolidine-2-carboxamide], the inhibition at 0.03 µM at IGF-1R came to 14%.
